Measured values taken from patent US20230167058A1, “GPX4 COMPOUNDS AND COMPOSITIONS AND METHODS OF TREATMENT USING SAME” (THE TRUSTEES OF COLUMBIA UNIVERSITY IN THE CITY OF NEW YORK, priority 2020, published 2023).

Legend:
[1] = target: T1, GPX4^U46C (Homo sapiens, UniProt P36969, U73C); experiment: Thermal shift assay (screen of LOC library); assay type: binding
T1 construct: His6 (N, cleaved yes); made in house; host or cells: E. coli BL21-Gold (DE3), M9 minimal medium with 15NH4Cl
T1 sequence (P36969 33-197 U73C): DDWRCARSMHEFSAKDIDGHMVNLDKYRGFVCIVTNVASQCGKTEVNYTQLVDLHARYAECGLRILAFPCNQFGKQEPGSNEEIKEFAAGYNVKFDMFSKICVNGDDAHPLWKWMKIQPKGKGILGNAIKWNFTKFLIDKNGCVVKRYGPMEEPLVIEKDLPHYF
Procedure: To fully utilize the versatility shown by the […] site to accommodate structurally diverse compounds, we applied thermal shift assay to screen 9,719 compounds in the Lead-Optimized-Compound (LOC) library for in vitro binders of GPX4^U46C, which would shift the melting temperature of GPX4^U46C (|ΔTm|>2° C., FIG. 12D) (Kaplan et al. 2015).
Since the binding of small molecules may alter the thermostability of protein, we applied thermal shift assay to screen the LOC library, which determined binding of ligand from the change of the unfolding transition temperature (ΔTm) obtained in the presence of ligands relative to that obtained in the absence of ligands (Kaplan et al. 2015; Lo et al. 2004). For higher throughput purpose, we adapted the assay on 384-well PCR plate. With the assistance of Biomek Automated Liquid Handler (Beckman), 2 μl 10 mM stock solution (in 100% DMSO) of the each compound was transferred from 384-well library plates to 38 μl FPLC buffer (100 mM Tris pH 8.0, 300 mM NaCl, 3 mM TCEP) and mixed in each well of a 384-well mother plate. The compound solution was then dispensed, 12 μl per well, into three 384-well PCR plates. GPX4^U46C protein and Sypro orange were manually added to the plate, with the final concentrations of 5 μM and 5×, respectively, to make a volume of 20 μl per well right before thermal shift analysis of the specific plate. The thermal shift assay was performed on the ViiA 7 Real-Time PCR system (Thermo Fisher) with the thermal protocol: 25° for 15 s, Increase temp to 99° at a rate of 0.05°/sec, 99° for 15 sec. The fluorescence was recorded and analyzed by Protein Thermal Shift™ software. The mean |ΔTm| value for the biological triplicates were calculated and used for hit identification.

[2] = test system: GPX4 protein level in HT-1080 cells; experiment: Western blot GPX4 degradation study in HT-1080; assay type: cell-based, human; conditions: 1 μM RSL3, 1 μM ML162, 10 μM FIN56, 10 h, with 100 μM α-tocopherol
Procedure: For the GPX4 degradation study, HT-1080 cells were seeded at 800,000 per well in a 60-mm plate and allowed to adhere overnight. Cells were then treated with 100 μM α-tocopherol and either 1 μM RSL3, 1 μM ML162, 10 μM IKE, 10 μM FIN56, or vehicle for 10 h. Cells were harvested with trypsin (Invitrogen, 25200-114), pelleted, and lysed with RIPA buffer.
For both experiments, cell lysates were blotted and imaged as previously described (Yang et al. 2014). Antibodies used were GPX4 (Abcam, ab125066, 1:250 dilution), actin (Cell Signaling, D18C11, 1:3,000 dilution), and GAPDH (Santa Cruz, sc-47724, 1:10,000 dilution). Results were quantified using a LI-COR Odyssey CLx IR scanner and GraphPad Prism 7.

[3] = target: T1, GPX4^U46C; experiment: Co-crystal structure of GPX4^U46C with inhibitor; assay type: binding
Procedure: GPX4^U46C was pre-incubated with the covalent inhibitors before crystallization using the following specifically optimized condition.
RSL3 and ML162 condition: 50 μM GPX4^U46C incubated with 150 μM RSL3 or ML162 in the reaction buffer (20 mM Tris pH 9.0, 100 mM NaCl, 3 mM TCEP, 1.5% DMSO) at 15° C. for 1 hour before transferring to 4° C. overnight. CDS9 condition: 25 μM GPX4^U46C incubated with 2 mM CDS9 in the reaction buffer (100 mM Tris pH 9.0, 300 mM NaCl, 1 mM TCEP, 2% DMSO) at 37° C. for 2 hours before transferring to 4° C. overnight. TMT10 condition: 25 μM GPX4^U46C incubated with 2 mM TMT10 in the reaction buffer (100 mM Tris pH 9.0, 300 mM NaCl, 2% glycerol, 2% DMSO) at 37° C. for 4 hours before transferring to 4° C. overnight. MAC-5576 condition: 50 μM GPX4^U46C protein was incubated with 500 μM MAC-5576 in the reaction buffer (100 mM Tris pH 9.0, 300 mM NaCl, and 3 mM TCEP, 5% DMSO) at RT for 1 hour before transferring to 4° C. overnight.
After confirmation of covalent binding using intact protein MALDI MS analysis, the protein-inhibitor complex were exchanged into crystallization buffer (10 mM Tris pH 8.0, 5 mM TCEP) and concentrated to 5 mg/ml.

[4] = test system: allCys(−) A66C GPX4 in G401 cells; experiment: Western blot GPX4 degradation study in G401; assay type: cell-based; conditions: 2 or 4 μM RSL3, 10 h, 10 μM Fer-1
Procedure: For the GPX4 degradation study, G-401 cells were seeded at 800,000 per well in a 60-mm plate and allowed to adhere overnight. Cells were then treated with 10 μM Fer-1 and 0 (vehicle), 2 or 4 μM RSL3 for 10 h. Cells were harvested with trypsin (Invitrogen, 25200-114), pelleted, and lysed with RIPA buffer.
For the quantification of GPX4 protein level for cellular viability and GPX4-specific activity assay, each cell line subject to the cellular viability and GPX4-specific activity was tested by Western Blot in technical duplicates. In particular, cells were harvested with trypsin (Invitrogen, 25200-114), pelleted, and lysed by LCW lysis buffer (0.5% TritonX-100, 0.5% sodium deoxycholate salt, 150 mM NaCl, 20 mM Tris-HCl pH 7.5, 10 mM EDTA, 30 mM Na-pyrophosphate, and cOmplete protease inhibitor cocktail). While part of the cell lysates was blotted for protein quantification, the other part of lysates was used for the GPX4-specific activity assay. For both experiments, cell lysates were blotted and imaged as previously described (Yang et al. 2014). Antibodies used were GPX4 (Abcam, ab125066, 1:250 dilution) and actin (Cell Signaling, D18C11, 1:3,000 dilution). Results were quantified using a LI-COR Odyssey CLx IR scanner, ImageJ, and GraphPad Prism 9.

[5] = test system: cancer cells; conditions: cited from earlier work

Structure (SMILES)	Thermal shift ([1]; Table 1)	|ΔTm| ([1]; thermal shift screening top hit) [°C]	degradation of endogenous GPX4 [2]	binding site in co-crystal structure [3]	RSL3-induced degradation of allCys(−) A66C GPX4 [4]	potency to induce ferroptosis [5]
COc1cccc2[nH]c(C(=O)n3ccnc3)cc12 [LOC1886]	positive	3	–	–	–	–
COC(=O)c1ccc([C@@H]2c3[nH]c4ccccc4c3C[C@@H](C(=O)OC)N2C(=O)CCl)cc1 [RSL3, (1S, 3R)-RSL3]	–	–	significantly promoted degradation of GPX4	bind to cys66	does-dependent degradation of allCys(−) A66C GPX4	nanomolar potencies
